Experimental data published in ChEMBL document CHEMBL6103540, “Recent Progress and Future Perspectives on Anti-Hyperuricemic Agents” (J Med Chem, 2024).

Key:
[1] = molecular target: T1, Xanthine dehydrogenase/oxidase (Homo sapiens, UniProt P47989); test: Inhibition of XOR (unknown origin)
[2] = molecular target: T2, Solute carrier family 22 member 12 (Homo sapiens, UniProt Q96S37); test: Inhibition of human URAT1 expressed in HEK293T cells by assessed as 14C-uric acid uptake preincubated for 5 mins followed by 14C-uric acid addition and measured after 10 mins by liquid scintillation counting method; assay type: cell-based
T2 sequence (Q96S37 whole entry): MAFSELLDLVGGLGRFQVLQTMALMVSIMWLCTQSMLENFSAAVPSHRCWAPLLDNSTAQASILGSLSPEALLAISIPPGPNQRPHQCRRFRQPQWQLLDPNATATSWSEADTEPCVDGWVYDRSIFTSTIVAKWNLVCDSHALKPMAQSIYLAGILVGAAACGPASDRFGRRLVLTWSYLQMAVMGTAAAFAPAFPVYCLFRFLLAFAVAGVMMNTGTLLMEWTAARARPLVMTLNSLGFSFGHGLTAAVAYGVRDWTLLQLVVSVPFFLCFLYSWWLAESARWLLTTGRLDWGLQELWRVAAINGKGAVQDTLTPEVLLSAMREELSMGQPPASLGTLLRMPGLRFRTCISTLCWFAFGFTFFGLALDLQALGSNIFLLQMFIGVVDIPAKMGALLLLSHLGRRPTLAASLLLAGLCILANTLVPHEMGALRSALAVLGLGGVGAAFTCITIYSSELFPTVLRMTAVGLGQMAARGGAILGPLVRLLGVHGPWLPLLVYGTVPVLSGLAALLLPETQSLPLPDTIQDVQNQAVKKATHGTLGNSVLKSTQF

[3] = molecular target: T2, Solute carrier family 22 member 12; test: Inhibition of URAT1 (unknown origin)
[4] = molecular target: T1, Xanthine dehydrogenase/oxidase; test: Inhibition of Xanthine oxidase (unknown origin)
[5] = molecular target: T2, Solute carrier family 22 member 12; test: Inhibition of human URAT1 stably expressed in HEK293 cells by measuring 14C-uric acid uptake pre-incubated for 15 mins followed by 14C-uric acid addition and measured for 30 mins by liquid scintillation counter analysis; assay type: cell-based
[6] = molecular target: T2, Solute carrier family 22 member 12; test: Inhibition of human URAT1 stably expressed in HEK293T cells; assay type: cell-based
[7] = molecular target: T2, Solute carrier family 22 member 12; test: Inhibition of URAT1 (unknown origin) expressed in human HK-2 cells at 10 uM relative to control; assay type: cell-based; details: HK-2, human
[8] = molecular target: T1, Xanthine dehydrogenase/oxidase; test: Inhibition of xanthine oxidase (unknown origin) by absorbance based assay
[9] = molecular target: T3, Solute carrier family 2, facilitated glucose transporter member 9 (Homo sapiens, UniProt Q9NRM0); test: Inhibition of GLUT9 (unknown origin)
T3 sequence (Q9NRM0 whole entry): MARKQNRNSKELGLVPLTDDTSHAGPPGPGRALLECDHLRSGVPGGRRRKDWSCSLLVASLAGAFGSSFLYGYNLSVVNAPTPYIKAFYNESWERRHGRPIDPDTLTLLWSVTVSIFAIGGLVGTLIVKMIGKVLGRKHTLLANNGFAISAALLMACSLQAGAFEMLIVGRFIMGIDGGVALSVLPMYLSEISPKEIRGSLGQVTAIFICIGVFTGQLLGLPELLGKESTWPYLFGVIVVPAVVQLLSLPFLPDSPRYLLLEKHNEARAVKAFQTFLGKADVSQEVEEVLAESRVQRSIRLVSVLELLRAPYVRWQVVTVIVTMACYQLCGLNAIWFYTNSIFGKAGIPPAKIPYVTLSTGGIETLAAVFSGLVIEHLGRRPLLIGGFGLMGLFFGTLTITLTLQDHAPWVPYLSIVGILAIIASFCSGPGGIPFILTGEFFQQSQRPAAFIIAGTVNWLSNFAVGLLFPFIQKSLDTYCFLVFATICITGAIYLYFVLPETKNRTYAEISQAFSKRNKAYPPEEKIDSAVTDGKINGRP

T1 sequence (P47989 whole entry): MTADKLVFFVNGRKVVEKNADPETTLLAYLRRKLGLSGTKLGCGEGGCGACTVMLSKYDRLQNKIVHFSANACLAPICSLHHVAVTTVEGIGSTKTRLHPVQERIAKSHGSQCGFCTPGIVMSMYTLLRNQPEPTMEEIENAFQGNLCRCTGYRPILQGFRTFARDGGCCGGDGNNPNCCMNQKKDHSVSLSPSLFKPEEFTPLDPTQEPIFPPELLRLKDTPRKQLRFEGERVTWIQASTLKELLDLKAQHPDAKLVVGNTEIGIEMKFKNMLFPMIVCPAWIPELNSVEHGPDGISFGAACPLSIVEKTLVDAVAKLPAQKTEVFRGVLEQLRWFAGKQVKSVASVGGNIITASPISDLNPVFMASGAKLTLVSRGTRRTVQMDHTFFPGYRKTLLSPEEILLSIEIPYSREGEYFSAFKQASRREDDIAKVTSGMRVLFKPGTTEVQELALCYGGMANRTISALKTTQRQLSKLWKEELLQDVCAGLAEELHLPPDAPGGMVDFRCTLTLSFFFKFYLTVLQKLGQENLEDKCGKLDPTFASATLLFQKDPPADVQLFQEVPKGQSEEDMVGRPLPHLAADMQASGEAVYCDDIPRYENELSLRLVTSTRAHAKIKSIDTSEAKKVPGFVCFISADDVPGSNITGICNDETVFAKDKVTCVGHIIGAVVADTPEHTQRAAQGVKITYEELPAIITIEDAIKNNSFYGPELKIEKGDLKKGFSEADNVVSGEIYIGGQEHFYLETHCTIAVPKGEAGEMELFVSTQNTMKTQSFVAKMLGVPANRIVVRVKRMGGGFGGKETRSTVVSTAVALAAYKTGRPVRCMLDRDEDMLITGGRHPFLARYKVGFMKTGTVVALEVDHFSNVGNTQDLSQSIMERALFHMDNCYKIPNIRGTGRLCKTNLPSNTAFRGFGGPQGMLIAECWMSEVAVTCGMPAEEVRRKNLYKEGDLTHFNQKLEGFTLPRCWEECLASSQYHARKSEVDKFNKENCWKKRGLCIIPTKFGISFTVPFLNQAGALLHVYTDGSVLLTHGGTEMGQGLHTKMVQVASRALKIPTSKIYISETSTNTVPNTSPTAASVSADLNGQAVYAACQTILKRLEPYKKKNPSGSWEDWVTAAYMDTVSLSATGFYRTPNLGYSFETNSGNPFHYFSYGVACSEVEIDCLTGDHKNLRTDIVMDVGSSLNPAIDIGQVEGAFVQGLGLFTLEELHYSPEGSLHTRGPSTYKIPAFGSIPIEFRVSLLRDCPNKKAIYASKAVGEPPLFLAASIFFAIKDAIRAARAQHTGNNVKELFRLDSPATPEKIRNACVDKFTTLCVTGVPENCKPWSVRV

| IC50 [3] [nM] | IC50 [4] [nM] | SMILES | other results |
| --- | --- | --- | --- |
|  | 10 | Cc1nc(-c2ccc(OCC(C)C)c(C#N)c2)sc1C(=O)O [FEBUXOSTAT] |  |
| 53 |  | O=C(O)C1(Sc2ccnc3ccc(Br)cc23)CCC1 [SHR-4640] |  |

Second part, the compound before the results:

| SMILES | IC50 [3] [nM] | IC50 [4] [nM] | other results |
| --- | --- | --- | --- |
| O=C(/C=C/c1ccc(O)c2oc(-c3ccc(O)c(O)c3)cc12)O[C@H](Cc1ccc(O)c(O)c1)C(=O)O |  |  | IC50 [1]: 9700 nM |
| O=C(O)C1(Sc2ccccc2N2CCOc3ccc(Br)cc32)CCC1 |  |  | IC50 [2]: 1690 nM |
| O/N=C(\Cc1ccc(Br)cc1)c1ccc(O)cc1O | 145 | 3330 |  |
| CCCc1ccc(Cn2c(Br)nnc2SCC(=O)O)c2ccccc12 |  |  | IC50 [5]: 92 nM |
| CCn1c(=O)sc2cc(-c3ccc(C(=O)O)c(O)c3)ccc21 | 30200 | 12 |  |
| N#Cc1cc(-n2cnc(C(=O)O)c2)ccc1N1CCCCCC1 |  |  | IC50 [6]: 10800 nM |
| O=c1c2cc(O)c(O)cc2oc2cc(OCc3ccccc3)cc(O)c12 |  | 3300 |  |
| COc1cc2c3c(c1OS(=O)(=O)c1ccc(F)cc1)-c1ccccc1C[C@H]3N(C)CC2 |  |  | inhibition at 10 µM [7]: 61% |
| COc1ccc(C2CC(=O)c3c(O)cc(O)cc3O2)cc1O (configuration not stated) |  |  | IC50 [8]: 840 nM |
| CC(C)=CCc1c(O)ccc2c1O[C@H](c1ccc(O)cc1)CC2=O [ISOBAVACHIN] | 240 | 14400 | IC50 [9]: 1120 nM |
| N#Cc1cc(-c2n[nH]c(-c3ccncc3)n2)ccn1 [TOPIROXOSTAT] |  |  | IC50 [1]: 15 nM |
